The supplement of paper PMC11451515

System: NOMO1
Test: cell viability relative to DMSO control; higher = less cytotoxic
Conditions: 48 h
Procedure, shortened: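 Viability was expressed as a per-plate percentage of DMSO wells, with cell-free wells as background. Leukemia cells (NOMO1 or SEM at 500 cells/well, P12-Ichikawa at 1000 cells/well) were adapted for at least four passages in each medium and seeded in 1536-well plates (5 μl). Library compounds in DMSO were pin-dosed over an 11-point threefold series from 47 μM to 0.79 nM, and CellTiter-Glo One luminescence was read after 48 h at 37°C.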

[1] = HPLM + 10% dialyzed FBS, 0.000781 µM
[2] = HPLM + 10% dialyzed FBS, 0.00234 µM
[3] = HPLM + 10% dialyzed FBS, 0.00702 µM
[4] = HPLM + 10% dialyzed FBS, 0.0211 µM
[5] = HPLM + 10% dialyzed FBS, 0.0632 µM
[6] = HPLM + 10% dialyzed FBS, 0.19 µM
[7] = HPLM + 10% dialyzed FBS, 0.569 µM
[8] = HPLM + 10% dialyzed FBS, 1.71 µM
[9] = HPLM + 10% dialyzed FBS, 5.12 µM
[10] = HPLM + 10% dialyzed FBS, 15.4 µM
[11] = HPLM + 10% dialyzed FBS, 46.1 µM
[12] = RPMI 5 mM glucose + 10% FBS, 0.000781 µM
[13] = RPMI 5 mM glucose + 10% FBS, 0.00234 µM
[14] = RPMI 5 mM glucose + 10% FBS, 0.00702 µM
[15] = RPMI 5 mM glucose + 10% FBS, 0.0211 µM
[16] = RPMI 5 mM glucose + 10% FBS, 0.0632 µM
[17] = RPMI 5 mM glucose + 10% FBS, 0.19 µM
[18] = RPMI 5 mM glucose + 10% FBS, 0.569 µM
[19] = RPMI 5 mM glucose + 10% FBS, 1.71 µM
[20] = RPMI 5 mM glucose + 10% FBS, 5.12 µM
[21] = RPMI 5 mM glucose + 10% FBS, 15.4 µM
[22] = RPMI 5 mM glucose + 10% FBS, 46.1 µM
[23] = RPMI 5 mM glucose + 10% dialyzed FBS, 0.000781 µM
[24] = RPMI 5 mM glucose + 10% dialyzed FBS, 0.00234 µM
[25] = RPMI 5 mM glucose + 10% dialyzed FBS, 0.00702 µM
[26] = RPMI 5 mM glucose + 10% dialyzed FBS, 0.0211 µM
[27] = RPMI 5 mM glucose + 10% dialyzed FBS, 0.0632 µM
[28] = RPMI 5 mM glucose + 10% dialyzed FBS, 0.19 µM
[29] = RPMI 5 mM glucose + 10% dialyzed FBS, 0.569 µM
[30] = RPMI 5 mM glucose + 10% dialyzed FBS, 1.71 µM
[31] = RPMI 5 mM glucose + 10% dialyzed FBS, 5.12 µM
[32] = RPMI 5 mM glucose + 10% dialyzed FBS, 15.4 µM
[33] = RPMI 5 mM glucose + 10% dialyzed FBS, 46.1 µM

| Compound | cell viability [1] | cell viability [2] | cell viability [3] | cell viability [4] | cell viability [5] | cell viability [6] | cell viability [7] | cell viability [8] | cell viability [9] | cell viability [10] | cell viability [11] | cell viability [12] | cell viability [13] | cell viability [14] | cell viability [15] | cell viability [16] | cell viability [17] | cell viability [18] | cell viability [19] | cell viability [20] | cell viability [21] | cell viability [22] | cell viability [23] | cell viability [24] | cell viability [25] | cell viability [26] | cell viability [27] | cell viability [28] | cell viability [29] | cell viability [30] | cell viability [31] | cell viability [32] | cell viability [33] |
| --- | --- | --- | --- | --- | --- | --- | --- | --- | --- | --- | --- | --- | --- | --- | --- | --- | --- | --- | --- | --- | --- | --- | --- | --- | --- | --- | --- | --- | --- | --- | --- | --- | --- |
| CCCCCNC(=N)N/N=C/c1c[nH]c2ccc(OC)cc12 | 123% | 121% | 134% | 132% | 137% | 135% | 147% | 137% | 132% | 71.7% | 48.8% | 122% | 122% | 142% | 131% | 145% | 155% | 141% | 129% | 134% | 93.4% | 26.7% |  |  |  |  |  |  |  |  |  |  |  |
| Cc1c(N)nc([C@H](CC(N)=O)NC[C@@H](N)C(N)=O)nc1C(=O)N[C@H](C(=O)N[C@@H](C)[C@H](O)[C@@H](C)C(=O)N[C@@H](C(=O)NCCc1nc(-c2nc(C(=O)NCCC[S+](C)C)cs2)cs1)[C@@H](C)O)C(O[C@H]1O[C@H](CO)[C@H](O)[C@@H](O)[C@H]1O[C@H]1O[C@H](CO)[C@@H](O)[C@H](OC(N)=O)[C@@H]1O)c1c[nH]cn1 (stereo partly specified) | 117% | 112% | 128% | 125% | 121% | 128% | 108% | 74% | 40.4% | 57.9% | 85.9% | 101% | 100% | 95% | 98.6% | 110% | 115% | 114% | 71.9% | 41.1% | 72.2% | 79.6% | 119% | 117% | 114% | 132% | 113% | 124% | 138% | 127% | 66% | 85% | 86.7% |
| CN1C(=O)/C(=C(NC2=CC=C(I)C=C2F)\C3=C1\N=C/N(C[C@@H](O)CO)C3=O)F | 68.9% | 64.9% | 72.1% | 58.8% | 48.5% | 48.8% | 41.3% | 33.7% | 30.2% | 36.2% | 26.4% | 69.9% | 77.6% | 78.7% | 52.5% | 48% | 45.7% | 31.1% | 34.6% | 30.7% | 37.8% | 32.7% | 69.2% | 60% | 71.1% | 46% | 48.9% | 41.7% | 37.5% | 33.7% | 32.7% | 31.8% | 29.5% |
| Cc1ccc2nc(NCCN)c3ncc(C)n3c2c1 | 116% | 99.9% | 121% | 104% | 108% | 107% | 105% | 101% | 113% | 88.7% | 8.31% | 88.1% | 92.2% | 91.9% | 94.1% | 98.1% | 98.4% | 100% | 87.8% | 90.2% | 84.9% | 11.3% | 87.9% | 95.8% | 104% | 104% | 99% | 96% | 95.6% | 96.7% | 100% | 81.6% | 7.57% |
| Nc1n[nH]c2nnc(-c3c(-c4ccccc4)nn4ccccc34)cc12 | 103% | 139% | 118% | 131% | 134% | 137% | 137% | 86.3% | 40.5% | 37.4% | 37.3% | 116% | 114% | 144% | 124% | 138% | 123% | 133% | 59% | 24% | 26.9% | 20.8% | 116% | 123% | 134% | 129% | 136% | 129% | 138% | 119% | 29.1% | 28% | 21.4% |
| CN(C)CCCC1(c2ccc(F)cc2)OCc2cc(C#N)ccc21 (stereo unspecified) | 107% | 103% | 111% | 90.7% | 100% | 94% | 91.8% | 106% | 68.4% | 88.8% | 74% | 88.5% | 101% | 102% | 88.9% | 98.5% | 89.5% | 91.4% | 106% | 57.9% | 79.9% | 84.4% | 87.5% | 90% | 96.4% | 85% | 90.4% | 84.5% | 77.4% | 82.2% | 55.3% | 81% | 72.6% |
| CC(=O)OC[C@@H]1O[C@H]([C@H](OC(C)=O)[C@@H]1OC(C)=O)N2\C=C/C(=O)NC2=O |  |  |  |  |  |  |  |  |  |  |  | 107% | 117% | 115% | 117% | 125% | 121% | 102% | 111% | 105% | 82.9% | 22.6% |  |  |  |  |  |  |  |  |  |  |  |
| O=C(O)c1ccc(O)c2ncc(N3CCOCC3)cc12 | 90.9% | 108% | 99.9% | 103% | 99.3% | 101% | 109% | 105% | 97.2% | 83.6% | 18.9% | 93.9% | 91.1% | 92.7% | 92.1% | 89.4% | 86.3% | 87.5% | 86.2% | 85.4% | 79.3% | 73.8% | 98.1% | 101% | 111% | 104% | 107% | 94.2% | 126% | 102% | 91.2% | 104% | 81.5% |
